Reference: PMC6120666 (The EMBO Journal, 2018)

Legend:
Experiment in all cases: Drug affinity chromatography with c-ponatinib and LC-MS/MS (ponatinib interactome)
Type in all cases: binding
[1] = molecular target: T1, proteins of U2OS cell lysate (Homo sapiens, UniProt Q13428); details: TCOF1, Treacle protein
T1 construct: Proteins enriched by c-ponatinib from U2OS cell lysate; endogenous in cells; host or cells: U2OS cell lysate
How it was run: (§1)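 Proteins were identified by nano-UPLC–MS/MS after elution with formic acid and trypsin digestion. They were captured from U2OS lysate (2 mg protein per pulldown, NP-40 buffer) on amine-coupled NHS beads during a 2 h incubation at 4 °C.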

[2] = molecular target: T2, proteins of U2OS cell lysate (Homo sapiens, UniProt P61247); details: RPS3A, 40S ribosomal protein S3a
T2 construct: Proteins enriched by c-ponatinib from U2OS cell lysate; endogenous in cells; host or cells: U2OS cell lysate
How it was run: as §1

[3] = molecular target: T3, proteins of U2OS cell lysate (Homo sapiens, UniProt P09669); details: COX6C, Cytochrome c oxidase subunit 6C
T3 construct: Proteins enriched by c-ponatinib from U2OS cell lysate; endogenous in cells; host or cells: U2OS cell lysate
How it was run: as §1

[4] = molecular target: T4, proteins of U2OS cell lysate (Homo sapiens, UniProt Q9UIA9); details: XPO7, Exportin-7
T4 construct: Proteins enriched by c-ponatinib from U2OS cell lysate; endogenous in cells; host or cells: U2OS cell lysate
How it was run: as §1

[5] = molecular target: T5, proteins of U2OS cell lysate (Homo sapiens, UniProt Q8N3V7); details: SYNPO, Synaptopodin
T5 construct: Proteins enriched by c-ponatinib from U2OS cell lysate; endogenous in cells; host or cells: U2OS cell lysate
How it was run: as §1

[6] = molecular target: T6, proteins of U2OS cell lysate (Homo sapiens, UniProt P84090); details: ERH, Enhancer of rudimentary homolog
T6 construct: Proteins enriched by c-ponatinib from U2OS cell lysate; endogenous in cells; host or cells: U2OS cell lysate
How it was run: as §1

[7] = molecular target: T7, proteins of U2OS cell lysate (Homo sapiens, UniProt O00410); details: IPO5, Importin-5
T7 construct: Proteins enriched by c-ponatinib from U2OS cell lysate; endogenous in cells; host or cells: U2OS cell lysate
How it was run: as §1

[8] = molecular target: T8, proteins of U2OS cell lysate (Homo sapiens, UniProt P09382); details: LGALS1, Galectin-1
T8 construct: Proteins enriched by c-ponatinib from U2OS cell lysate; endogenous in cells; host or cells: U2OS cell lysate
How it was run: as §1

[9] = molecular target: T9, proteins of U2OS cell lysate (Homo sapiens, UniProt Q86UP2); details: KTN1, Kinectin
T9 construct: Proteins enriched by c-ponatinib from U2OS cell lysate; endogenous in cells; host or cells: U2OS cell lysate
How it was run: as §1

[10] = molecular target: T10, proteins of U2OS cell lysate (Homo sapiens, UniProt P39019); details: RPS19, 40S ribosomal protein S19
T10 construct: Proteins enriched by c-ponatinib from U2OS cell lysate; endogenous in cells; host or cells: U2OS cell lysate
How it was run: as §1

[11] = molecular target: T11, proteins of U2OS cell lysate (Homo sapiens, UniProt P35232); details: PHB, Prohibitin
T11 construct: Proteins enriched by c-ponatinib from U2OS cell lysate; endogenous in cells; host or cells: U2OS cell lysate
How it was run: as §1

[12] = molecular target: T12, proteins of U2OS cell lysate (Homo sapiens, UniProt Q00610); details: CLTC, Clathrin heavy chain 1
T12 construct: Proteins enriched by c-ponatinib from U2OS cell lysate; endogenous in cells; host or cells: U2OS cell lysate
How it was run: as §1

[13] = molecular target: T13, proteins of U2OS cell lysate (Homo sapiens, UniProt O14980); details: XPO1, Exportin-1
T13 construct: Proteins enriched by c-ponatinib from U2OS cell lysate; endogenous in cells; host or cells: U2OS cell lysate
How it was run: as §1

[14] = molecular target: T14, proteins of U2OS cell lysate (Homo sapiens, UniProt P07814); details: EPRS, Bifunctional glutamate/proline--tRNA ligase
T14 construct: Proteins enriched by c-ponatinib from U2OS cell lysate; endogenous in cells; host or cells: U2OS cell lysate
How it was run: as §1

[15] = molecular target: T15, proteins of U2OS cell lysate (Homo sapiens, UniProt O00231); details: PSMD11, 26S proteasome non-ATPase regulatory subunit 11
T15 construct: Proteins enriched by c-ponatinib from U2OS cell lysate; endogenous in cells; host or cells: U2OS cell lysate
How it was run: as §1

[16] = molecular target: T16, proteins of U2OS cell lysate (Homo sapiens, UniProt Q14680); details: MELK, Maternal embryonic leucine zipper kinase
T16 construct: Proteins enriched by c-ponatinib from U2OS cell lysate; endogenous in cells; host or cells: U2OS cell lysate
How it was run: as §1

[17] = molecular target: T17, proteins of U2OS cell lysate (Homo sapiens, UniProt O43143); details: DHX15, Putative pre-mRNA-splicing factor ATP-dependent RNA helicase DHX15
T17 construct: Proteins enriched by c-ponatinib from U2OS cell lysate; endogenous in cells; host or cells: U2OS cell lysate
How it was run: as §1

[18] = molecular target: T18, proteins of U2OS cell lysate (Homo sapiens, UniProt Q14315); details: FLNC, Filamin-C
T18 construct: Proteins enriched by c-ponatinib from U2OS cell lysate; endogenous in cells; host or cells: U2OS cell lysate
How it was run: as §1

[19] = molecular target: T19, proteins of U2OS cell lysate (Homo sapiens, UniProt P09493); details: captured protein TPM1, Rank 202
T19 construct: Proteins enriched by c-ponatinib from U2OS cell lysate; endogenous in cells; host or cells: U2OS cell lysate
How it was run: as §1

[20] = molecular target: T20, proteins of U2OS cell lysate (Homo sapiens, UniProt P55884); details: captured protein EIF3B, Rank 123
T20 construct: Proteins enriched by c-ponatinib from U2OS cell lysate; endogenous in cells; host or cells: U2OS cell lysate
How it was run: as §1

T4 sequence (Q9UIA9 whole entry): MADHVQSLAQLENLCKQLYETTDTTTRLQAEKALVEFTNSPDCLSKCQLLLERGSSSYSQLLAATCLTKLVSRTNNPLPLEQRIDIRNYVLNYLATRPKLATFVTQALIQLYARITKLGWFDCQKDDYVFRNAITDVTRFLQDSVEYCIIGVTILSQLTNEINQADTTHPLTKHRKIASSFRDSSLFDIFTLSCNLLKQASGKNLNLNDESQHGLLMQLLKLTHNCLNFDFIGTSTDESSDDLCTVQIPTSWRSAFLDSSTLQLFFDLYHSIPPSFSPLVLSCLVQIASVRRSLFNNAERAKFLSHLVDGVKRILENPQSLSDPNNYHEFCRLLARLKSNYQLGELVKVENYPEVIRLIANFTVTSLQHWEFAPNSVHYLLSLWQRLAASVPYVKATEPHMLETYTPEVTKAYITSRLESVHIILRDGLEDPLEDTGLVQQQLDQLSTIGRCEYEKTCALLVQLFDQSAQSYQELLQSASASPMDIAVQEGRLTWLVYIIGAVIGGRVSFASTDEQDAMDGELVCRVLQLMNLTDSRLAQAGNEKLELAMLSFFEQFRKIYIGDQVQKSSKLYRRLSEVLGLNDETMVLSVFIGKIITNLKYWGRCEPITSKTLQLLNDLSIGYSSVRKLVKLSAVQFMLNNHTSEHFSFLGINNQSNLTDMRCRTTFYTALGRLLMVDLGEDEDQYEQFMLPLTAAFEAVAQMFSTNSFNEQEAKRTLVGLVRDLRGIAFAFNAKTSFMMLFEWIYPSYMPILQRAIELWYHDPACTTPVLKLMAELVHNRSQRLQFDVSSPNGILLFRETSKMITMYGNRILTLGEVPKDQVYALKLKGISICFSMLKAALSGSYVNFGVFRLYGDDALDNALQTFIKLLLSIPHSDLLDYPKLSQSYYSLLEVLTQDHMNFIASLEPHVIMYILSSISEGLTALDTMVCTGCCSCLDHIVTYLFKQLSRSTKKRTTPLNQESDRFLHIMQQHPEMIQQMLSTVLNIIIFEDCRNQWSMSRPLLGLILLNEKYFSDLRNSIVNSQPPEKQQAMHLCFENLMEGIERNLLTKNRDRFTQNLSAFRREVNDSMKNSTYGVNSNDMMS
T11 sequence (P35232 whole entry): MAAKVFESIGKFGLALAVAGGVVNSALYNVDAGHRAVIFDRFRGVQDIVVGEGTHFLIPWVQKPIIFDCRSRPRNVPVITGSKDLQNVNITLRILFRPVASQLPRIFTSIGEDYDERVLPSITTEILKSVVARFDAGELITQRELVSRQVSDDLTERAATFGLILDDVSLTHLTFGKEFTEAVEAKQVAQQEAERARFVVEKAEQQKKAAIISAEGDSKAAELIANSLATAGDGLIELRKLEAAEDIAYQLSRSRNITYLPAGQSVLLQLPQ
T13 sequence (O14980 whole entry): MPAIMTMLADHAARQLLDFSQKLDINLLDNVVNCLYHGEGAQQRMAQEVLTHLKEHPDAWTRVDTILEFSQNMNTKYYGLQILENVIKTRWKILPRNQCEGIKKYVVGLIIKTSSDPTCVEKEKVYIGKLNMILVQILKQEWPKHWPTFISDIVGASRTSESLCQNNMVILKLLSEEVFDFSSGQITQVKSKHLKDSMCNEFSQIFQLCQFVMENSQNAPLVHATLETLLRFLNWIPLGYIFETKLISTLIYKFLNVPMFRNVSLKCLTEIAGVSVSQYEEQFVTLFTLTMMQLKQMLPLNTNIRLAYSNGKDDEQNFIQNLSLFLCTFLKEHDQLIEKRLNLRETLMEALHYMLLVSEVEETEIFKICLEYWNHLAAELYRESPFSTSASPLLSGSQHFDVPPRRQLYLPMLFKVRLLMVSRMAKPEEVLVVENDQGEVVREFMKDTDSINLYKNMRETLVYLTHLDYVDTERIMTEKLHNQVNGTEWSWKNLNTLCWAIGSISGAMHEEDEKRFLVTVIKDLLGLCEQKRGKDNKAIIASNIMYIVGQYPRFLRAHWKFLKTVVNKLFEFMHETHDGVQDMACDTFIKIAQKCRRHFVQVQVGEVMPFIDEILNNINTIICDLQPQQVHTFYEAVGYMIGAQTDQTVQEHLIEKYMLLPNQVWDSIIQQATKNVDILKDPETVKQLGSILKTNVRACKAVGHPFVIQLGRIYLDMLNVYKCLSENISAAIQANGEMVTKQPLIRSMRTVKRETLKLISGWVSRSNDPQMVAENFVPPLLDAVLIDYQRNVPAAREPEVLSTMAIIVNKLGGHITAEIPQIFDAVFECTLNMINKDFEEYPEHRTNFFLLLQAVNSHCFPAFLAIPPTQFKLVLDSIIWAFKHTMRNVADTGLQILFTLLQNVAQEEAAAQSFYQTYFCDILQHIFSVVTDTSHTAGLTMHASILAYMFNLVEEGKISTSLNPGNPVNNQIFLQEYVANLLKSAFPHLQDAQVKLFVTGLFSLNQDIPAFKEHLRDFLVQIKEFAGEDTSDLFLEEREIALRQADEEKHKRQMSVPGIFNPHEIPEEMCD
T17 sequence (O43143 whole entry): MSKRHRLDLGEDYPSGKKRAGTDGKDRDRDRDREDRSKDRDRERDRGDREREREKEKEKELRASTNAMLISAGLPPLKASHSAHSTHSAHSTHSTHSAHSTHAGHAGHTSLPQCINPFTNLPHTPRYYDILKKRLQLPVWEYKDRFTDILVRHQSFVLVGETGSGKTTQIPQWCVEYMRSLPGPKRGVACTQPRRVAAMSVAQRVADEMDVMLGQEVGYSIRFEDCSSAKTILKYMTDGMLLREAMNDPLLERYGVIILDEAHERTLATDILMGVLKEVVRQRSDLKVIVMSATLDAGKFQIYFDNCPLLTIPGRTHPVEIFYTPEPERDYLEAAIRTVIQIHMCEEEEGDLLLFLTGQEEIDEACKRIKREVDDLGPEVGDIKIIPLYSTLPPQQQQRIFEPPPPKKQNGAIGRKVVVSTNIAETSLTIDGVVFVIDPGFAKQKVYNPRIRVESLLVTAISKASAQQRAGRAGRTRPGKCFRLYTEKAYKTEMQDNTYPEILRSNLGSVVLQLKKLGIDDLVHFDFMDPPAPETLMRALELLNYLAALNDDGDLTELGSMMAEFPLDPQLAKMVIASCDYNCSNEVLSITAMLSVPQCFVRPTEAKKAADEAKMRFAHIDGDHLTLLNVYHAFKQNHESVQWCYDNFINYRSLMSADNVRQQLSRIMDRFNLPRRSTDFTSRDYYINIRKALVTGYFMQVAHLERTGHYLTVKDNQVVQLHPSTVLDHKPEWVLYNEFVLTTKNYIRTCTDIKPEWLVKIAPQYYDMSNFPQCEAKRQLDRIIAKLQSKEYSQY
T3 sequence (P09669 whole entry): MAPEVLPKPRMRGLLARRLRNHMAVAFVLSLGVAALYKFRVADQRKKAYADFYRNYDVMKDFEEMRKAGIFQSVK
T5 sequence (Q8N3V7 whole entry): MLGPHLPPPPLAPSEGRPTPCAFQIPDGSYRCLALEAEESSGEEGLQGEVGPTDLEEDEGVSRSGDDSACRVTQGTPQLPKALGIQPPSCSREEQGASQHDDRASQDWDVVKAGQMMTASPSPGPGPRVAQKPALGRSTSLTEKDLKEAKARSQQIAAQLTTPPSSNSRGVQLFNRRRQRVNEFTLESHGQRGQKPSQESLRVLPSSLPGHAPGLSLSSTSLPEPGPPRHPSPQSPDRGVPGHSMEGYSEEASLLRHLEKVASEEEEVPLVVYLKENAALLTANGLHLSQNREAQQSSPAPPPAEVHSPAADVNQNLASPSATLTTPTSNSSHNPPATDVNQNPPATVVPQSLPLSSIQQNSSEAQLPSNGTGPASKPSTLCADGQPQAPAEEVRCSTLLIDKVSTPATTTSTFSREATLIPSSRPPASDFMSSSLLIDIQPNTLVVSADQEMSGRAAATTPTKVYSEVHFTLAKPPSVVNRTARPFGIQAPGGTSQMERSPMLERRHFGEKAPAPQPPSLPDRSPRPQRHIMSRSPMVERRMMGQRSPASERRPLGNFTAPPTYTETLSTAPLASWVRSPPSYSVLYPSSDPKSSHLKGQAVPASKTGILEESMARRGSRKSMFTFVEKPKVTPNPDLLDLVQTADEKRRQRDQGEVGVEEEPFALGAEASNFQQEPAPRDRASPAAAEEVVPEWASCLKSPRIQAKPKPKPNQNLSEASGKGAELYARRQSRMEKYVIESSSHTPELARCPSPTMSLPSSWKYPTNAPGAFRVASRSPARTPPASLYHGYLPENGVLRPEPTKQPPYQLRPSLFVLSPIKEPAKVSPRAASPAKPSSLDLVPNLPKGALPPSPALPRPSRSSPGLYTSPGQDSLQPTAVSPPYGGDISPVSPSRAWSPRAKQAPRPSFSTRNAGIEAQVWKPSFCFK
T16 sequence (Q14680 whole entry): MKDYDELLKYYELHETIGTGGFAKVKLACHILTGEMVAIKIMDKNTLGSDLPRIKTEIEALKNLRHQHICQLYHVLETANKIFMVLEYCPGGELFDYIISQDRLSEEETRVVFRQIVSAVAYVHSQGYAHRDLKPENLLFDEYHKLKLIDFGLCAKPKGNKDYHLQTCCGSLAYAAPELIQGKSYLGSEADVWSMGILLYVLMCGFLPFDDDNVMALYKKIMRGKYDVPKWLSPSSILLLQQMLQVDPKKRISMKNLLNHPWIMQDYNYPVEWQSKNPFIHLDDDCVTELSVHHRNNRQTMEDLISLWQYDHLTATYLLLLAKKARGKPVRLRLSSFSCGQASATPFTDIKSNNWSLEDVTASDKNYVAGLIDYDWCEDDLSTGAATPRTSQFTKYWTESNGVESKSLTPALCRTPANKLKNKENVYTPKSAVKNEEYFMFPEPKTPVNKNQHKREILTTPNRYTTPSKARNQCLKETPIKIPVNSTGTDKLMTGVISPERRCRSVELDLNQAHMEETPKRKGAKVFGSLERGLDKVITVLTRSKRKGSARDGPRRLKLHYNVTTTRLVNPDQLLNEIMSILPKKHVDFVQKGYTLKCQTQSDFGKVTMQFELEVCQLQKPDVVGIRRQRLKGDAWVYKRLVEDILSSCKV
T8 sequence (P09382 whole entry): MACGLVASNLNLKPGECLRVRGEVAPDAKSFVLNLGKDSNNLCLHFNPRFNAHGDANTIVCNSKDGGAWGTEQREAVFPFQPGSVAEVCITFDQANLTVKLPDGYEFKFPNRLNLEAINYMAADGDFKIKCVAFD

For `Cc1ccc(C(=O)Nc2ccc(CN3CCN(C)CC3)c(C(F)(F)F)c2)cc1C#Cc1cnc2cccnn12` [PON], the “Average LFQ PON_WT” value [1] was 20.5654, the “Average LFQ PON_WT” value [2] was 21.3119 and the “Average LFQ PON_WT” value [3] was 20.8234. The “Average LFQ PON_WT” value [4] was 20.002, the “Average LFQ PON_WT” value [5] was 23.2218 and the “Average LFQ PON_WT” value [6] was 21.4936. For the same molecule, the “Average LFQ PON_WT” value [7] was 21.1425, the “Average LFQ PON_WT” value [8] was 23.8412 and the “Average LFQ PON_WT” value [9] was 24.25. The “Average LFQ PON_WT” value [10] was 21.4728, the “Average LFQ PON_WT” value [11] was 29.1615 and the “Average LFQ PON_WT” value [12] was 26.5716. For the same molecule, the “Average LFQ PON_WT” value [13] was 23.5357, the “Average LFQ PON_WT” value [14] was 20.1996 and the “Average LFQ PON_WT” value [15] was 21.0044. For the same molecule, the “Average LFQ PON_WT” value [16] was 24.1941, the “Average LFQ PON_WT” value [17] was 20.8395 and the “Average LFQ PON_WT” value [18] was 26.6007.
With `Cc1ccc(C(=O)Nc2ccc(CN3CCN(CCCN)CC3)c(C(F)(F)F)c2)cc1C#Cc1cnc2cccnn12` [c-ponatinib, reference compound] the “Average LFQ intensity” value [19] was 21.8321 and the “Average LFQ intensity” value [20] was 23.0265.
